The assay concerns Cells derived from six prolactin-secreting pituitary adenomas. The assay is described as follows: Prolactin secretion from cultured prolactinoma cells (immunoradiometric assay of PRL in medium). The conditions noted are these: for effect on prolactin release (in words): adenomatous cell cultures of tumor 1, 3 hours; for response of prolactin secretion (in words): cells from the four large tumors (tumors 1, 2, 3 and 4); for suppressed prolactin release / effect on prolactin production (in words): tumor 4 cell cultures; for suppressed prolactin release: p<0.05. The assay is classed as cell-based, human.

Positions of bridges follow the written chain, without caps; N, C: chain ends. Non-standard residues stand in square brackets, D forms with d. Residues, ends and D or L forms follow the SMILES beside them.

On to `CC[C@@H]1NC(=O)[C@H](CCCCN)NC(=O)[C@@H](Cc2c[nH]c3ccccc23)NC(=O)[C@H](Cc2ccc(O)cc2)NC(=O)[C@@H](NC(=O)[C@H](N)Cc2ccccc2)CSSC[C@@H](C(=O)N[C@H](C(N)=O)[C@@H](C)O)NC1=O` [BIM-23023], for which the “effect on prolactin release (in words)” value was “did not affect prolactin release”.
As for `C[C@@H](O)[C@H](NC(=O)[C@H](Cc1ccccc1)NC(=O)[C@@H](NC(=O)[C@H](CCCCN)NC(=O)[C@@H](Cc1c[nH]c2ccccc12)NC(=O)[C@H](Cc1ccccc1)NC(=O)[C@H](Cc1ccccc1)NC(=O)[C@H](N)Cc1ccccc1)[C@@H](C)O)C(N)=O` [BIM-23052, H-D-Phe-Phe-Phe-D-Trp-Lys-Thr-Phe-Thr-NH2] (H-[dF]FF[dW]KTFT-NH2), the “response of prolactin secretion (in words)” value (“response” below) is “suppression of prolactin secretion” and the suppressed prolactin release entry is listed as “more than 30%”.
Take `CC[C@@H]1NC(=O)[C@H](CCCCN)NC(=O)[C@@H](Cc2c[nH]c3ccccc23)NC(=O)[C@H](Cc2ccc(O)cc2)NC(=O)[C@@H](NC(=O)[C@@H](Cc2ccccc2)NC(=O)CN2CCN(CCO)CC2)CSSC[C@@H](C(=O)N[C@H](C(N)=O)[C@@H](C)O)NC1=O` [BIM-23190]: the “effect on prolactin release (in words)” value is given as “did not affect prolactin release”, the “response” value is listed as “failed to respond” and the “effect on prolactin production (in words)” value was “modestly stimulated prolactin production”.
On the same counts, the results for `CC[C@@H]1NC(=O)[C@H](CCCCN)NC(=O)[C@@H](Cc2c[nH]c3ccccc23)NC(=O)[C@H](Cc2ccc(O)cc2)NC(=O)[C@@H](NC(=O)[C@@H](Cc2ccccc2)NS(=O)(=O)CCN2CCN(CCO)CC2)CSSC[C@@H](C(=O)N[C@H](C(N)=O)[C@@H](C)O)NC1=O` [BIM-23197] are “did not affect prolactin release”, “failed to respond” and “modestly stimulated prolactin production”.
As for `C[C@@H](O)[C@@H]1NC(=O)[C@H](CCCCN)NC(=O)[C@@H](Cc2c[nH]c3ccccc23)NC(=O)[C@H](Cc2ccccc2)NC(=O)[C@H](Cc2ccccc2)NC(=O)[C@@H](N)CSSC[C@@H](C(N)=O)NC(=O)[C@H](Cc2ccccc2)NC1=O` [BIM-23268] (H-CFF[dW]KTFC-NH2; disulfide 1-8), the “response” value is “suppression of prolactin secretion” and the suppressed prolactin release entry is “more than 30%”. Also, the “Prolactin release inhibited versus controls” value (tumor 2 cell cultures, 10 nM, p < 0.0005) amounted to 38%. Further, where the note is “tumor 3 cell cultures, 10 nM and 100 nM, dose dependent, p < 0.05”, the suppressed prolactin result is “up to 29%”.
As to `CC(C)[C@@H]1NC(=O)[C@H](CCCCN)NC(=O)[C@@H](Cc2c[nH]c3ccccc23)NC(=O)[C@H](Cc2ccc(O)cc2)NC(=O)[C@@H](NC(=O)[C@H](N)Cc2ccc3ccccc3c2)CSSC[C@@H](C(=O)N[C@H](C(N)=O)[C@@H](C)O)NC1=O` [Lanreotide], the “effect on prolactin release (in words)” value is “did not affect prolactin release” and the “response” value was “failed to respond”.
As for `C[C@@H](O)[C@@H]1NC(=O)[C@H](CCCCN)NC(=O)[C@@H](Cc2c[nH]c3ccccc23)NC(=O)[C@H](Cc2ccccc2)NC(=O)[C@@H](NC(=O)[C@H](N)Cc2ccccc2)CSSC[C@@H](C(=O)N[C@H](CO)[C@@H](C)O)NC1=O` [Octreotide], the “response” value is “failed to respond”.

The values are drawn from patent EP0979098B1, “METHOD OF TREATING HYPERPROLACTINEMIA AND PROLACTINOMAS” (Cedars-Sinai Medical Center, priority 1997, dated 1998).
